Experimental data taken from EP0097071A1, “Benzhydryl sulfinylacetamide derivatives and their therapeutical use” (LABORATOIRE L. LAFON Société anonyme dite:, priority 1982, dated 1983).

How the values were obtained:
[1] = tested on: souris; assay: Motility reduced by habituation to the enclosure; assay type: in vivo
Protocol: (§1) On a résumé ci-après les résultats des essais pharmacologiques qui ont été entrepris avec les produits selon la présente addition. Dans ces essais, les produits de formule I à étudier ont été administrés par voie intrapéritonéale, en suspension dans une solution aqueuse de gomme arabique, sous un volume de 20 ml/kg chez la souris mâle et sous un volume de 5 ml/kg chez le rat mâle.
Après 18 h de séjour dans les actimètres, les souris (6 par dose, 12 témoins) reçoivent le CRL 40933. Elles sont aussitôt replacées dans leurs enceintes respectives et, 30 min plus tard, on enregistre leur motilité pendant 30 min.

[2] = tested on: souris; assay: Spontaneous motility (actimeter); assay type: in vivo
Protocol: as §1
Une demi-heure, après avoir reçu le CRL 40933, les souris (6 par dose, 12 témoins) sont placées en actimètre où leur motilité est enregistrée pendant 30 min.

[3] = tested on: souris; assay: Motility reduced by hypoxic aggression (acute hypobaric anoxia); assay type: in vivo
Protocol: as §1
Une demi-heure après avoir reçu le CRL 40933, les souris (10 par dose, 20 témoins) sont soumises à une anoxie hypobare aiguë [dépression de 600 mm Hg (soit environ 8 x 10^4 pascals) en 90 s, puis détente de 45 s], puis elles sont placées en actimètre où leur motilité est enregistrée pendant 10 min.

[4] = tested on: SNC; assay: Essential activity on the CNS (Tableau I and conclusions of the neuropsychopharmacological study); assay type: in vivo; settings: in vivo
Source text: Dans le tableau I ci-après, on a consigné un certain nombre de composés selon la formule I de façon nullement limitative, en mentionnant l'activité essentielle sur le SNC.
Les composés de formule I agissent tous sur le SNC. Les produits des exemples 1-3 et 7-8 sont des agents stimulants, en revanche les produits des exemples 4-6 sont des agents sédatifs.

[5] = tested on: souris mâle; assay: Pentobarbital-induced sleep duration; assay type: in vivo
Source text: Les composés selon l'invention se distinguent du benzhydrylsulfinylacétamide (CRL 40476) précité par une différence d'action vis-à-vis du sommeil barbiturique. […]. Cette différence d'action qui est intéressante sur le plan thérapeutique est illustrée par le tableau IV

[6] = tested on: souris mâle; assay: Toxicity, DL-0; assay type: in vivo; settings: i.p.
Protocol: as §1
La toxicité a été étudiée chez la souris mâle. Les résultats relatifs à la DL-0 (dose minimale non mortelle) sont donnés dans le tableau II ci-après.

[7] = tested on: souris; assay: Intergroup aggressiveness; assay type: in vivo; settings: for agressivité intergroupes (nombre de combats): dose not stated
Protocol: as §1
Après avoir séjourné pendant 3 semaines dans chacune des moitiés d'une cage séparées par une cloison opaque, des groupes de 3 souris reçoivent le CRL 40933. 30 min plus tard, les deux groupes d'une même cage sont réunis par retrait de la cloison et on note le nombre de combats qui surviennent en 10 min.

[8] = Solubility; settings: for solubility: water
[9] = cited from earlier work
[10] = tested on: souris; assay: Interaction with barbital (sleep); assay type: in vivo
Protocol: as §1
Une demi-heure après l'administration de CRL 40933, des lots de 10 souris reçoivent une injection intrapéritonéale de 220 mg/kg de barbital.

[11] = tested on: souris; assay: Interaction with oxotremorine; assay type: in vivo
Protocol: as §1
Le CRL 40933 est administré à des lots de 6 souris 0,5 h avant l'injection intrapéritonéale de 0,5 mg/kg d'oxotrémorine.

[12] = tested on: rats; assay: Interaction with amphetamine (stereotypies); assay type: in vivo; settings: rat; amphétamine 2 mg/kg i.p.; doses used, not stated
Protocol: as §1
L'amphétamine (2 mg/kg)est injectée par voie intrapéritonéale à des lots de 6 rats, 30 min après l'administration de CRL 40933.

[13] = tested on: souris; assay: Electroshock; assay type: in vivo; settings: dose not stated
Protocol: as §1
(§2) Les essais sont effectués sur des lots de 10 souris (par dose) 0,5 h après l'administration du CRL 40933.

[14] = tested on: souris; assay: Interaction with reserpine; assay type: in vivo; settings: 128 mg/kg i.p.
Protocol: as §1
Quatre heures après l'injection intrapéritonéale de 2,5 mg/kg de réserpine, des lots de 6 souris reçoivent le CRL 40933.

[15] = tested on: rat; assay: Interaction with apomorphine, rat; assay type: in vivo; settings: apomorphine 0,5 mg/kg s.c., dose not stated
Protocol: as §1
Le CRL 40933 est administré à des lots de 6 rats 0,5 h avant l'injection sous-cutanée de 0,5 mg/kg d'apomorphine.

[16] = tested on: souris; assay: Four plates test; assay type: in vivo; settings: 0,5 h after administration, dose not stated
Protocol: as §1, §2

[17] = tested on: souris; assay: Traction test; assay type: in vivo; settings: 0,5 h after administration, dose not stated
Protocol: as §1, §2

[18] = tested on: souris mâles; assay: Global behaviour and reactivities, mouse; assay type: in vivo; settings: souris
Protocol: as §1
(§3) Pour apprécier le comportement global et les réactivités, des lots de six animaux (souris mâles ou rats mâles) ont été observés avant administration de chaque produit, puis 15 min, 30 min, 1 h, 2 h, 3 h et 24 h après administration de chaque produit. Les résultats sont consignés dans le tableau III ci-après, […]

[19] = tested on: rats mâles; assay: Global behaviour and reactivities, rat; assay type: in vivo; settings: 64 mg/kg i.p.
Protocol: as §1, §3

[20] = tested on: souris; assay: Interaction with apomorphine, mouse; assay type: in vivo
Protocol: as §1
Des lots de 6 souris par dose reçoivent le CRL 40933 0,5 h avant l'injection sous-cutanée d'apomorphine administrée à la dose de 1 ou 16 mg/kg.

[21] = tested on: souris; assay: Behavioural despair (forced immersion); assay type: in vivo; settings: 32 mg/kg et 128 mg/kg i.p.
Protocol: as §1
Une demi-heure après avoir reçu le CRL 40933, des lots de 10 souris par dose sont placés dans un espace restreint rempli d'eau sur une hauteur de 6 cm; on note la durée d'immobilité entre la 2e et la 6e minute suivant l'immersion.

[22] = tested on: souris; assay: Asphyxic anoxia (gallamine triethiodide); assay type: in vivo; settings: dose not stated
Protocol: as §1
Des lots de 10 souris par dose reçoivent le CRL 40933 30 min avant l'administration intrapéritonéale de 32 mg/kg de triiodoéthylate de gallamine.

[23] = dose 128 mg/kg i.p., 0,5 h before pentobarbital

O=C(C[S+]([O-])C(c1ccccc1)c1ccccc1)N1CCCCC1 (stereo not drawn) [Exemple 5, N-(benzhydrylsulfinylacétyl)-pipéridine]
mobilité réduite (habituation à l'enceinte) ([1]; souris, dose not stated): n'agit pas nettement | motilité spontanée ([2]; all doses used (8 mg/kg à 256 mg/kg), intensity increasing with dose): hypomotilité | mobilité réduite (agression hypoxique) ([3]; dose not stated): n'agit pas nettement | Activité sur le SNC [4]: sédatif | conclusion of the neuropsychopharmacological study: main type of CNS effect [4]: type sédatif | Action sur la durée du sommeil induit par le pentobarbital (50 mg/kg i.p.) effet [5, 23]: (a) | DL-O [6]: supérieure à 1024 mg/kg | agressivité intergroupes ([7]; 32 mg/kg i.p.): diminue de moitié | agressivité intergroupes (nombre de combats) [7]: effet antiagressif | solubility [8]: < 1000 µg/mL

NC(=O)C[S+]([O-])C(c1ccccc1)c1ccccc1 (stereo not drawn) [CRL 40476, benzhydrylsulfinylacétamide, reference compound]
Activité sur le SNC [4]: stimulant | Action sur la durée du sommeil induit par le pentobarbital (50 mg/kg i.p.) effet ([5]; dose de 8 à 256 mg/kg i.p., 0,5 h before pentobarbital): (b) (pas de modification significative de la durée du sommeil.) | durée du sommeil barbiturique induit par le pentobarbital ([5]; pentobarbital 50 mg/kg i.p. 0,5 h after i.p. test product, dose not stated): ne modifie pas | excitation avec hyperréactivité ([9]; in vivo): présence | potentialisation des effets de l'apomorphine et de l'amphétamine ([9]; in vivo): absence | stéréotypies ([9]; sauf à fortes doses): absence

CNC(=O)C[S+]([O-])C(c1ccccc1)c1ccccc1 (stereo not drawn) [Exemple 1, N-méthyl-benzhydrylsulfinylacétamide]
activité motrice chez la souris habituée à son enceinte ([1]; 8 mg/kg, 32 mg/kg et surtout 128 mg/kg i.p.): reprise d'activité motrice | motilité spontanée ([2]; 32 mg/kg et 128 mg/kg i.p.): augmentation modérée | durée du sommeil barbiturique ([10]; 32 mg/kg i.p.): n'entraîne pas de modifications sensibles | nombre de souris endormies ([10]; 32 mg/kg i.p.): diminution nette | durée du sommeil barbiturique ([10]; 128 mg/kg i.p.): diminue nettement | récupération motrice après séjour bref dans une enceinte à pression réduite ([3]; 128 mg/kg i.p.): amélioration modérée (mais non significative) | action hypothermisante de l'oxotrémorine ([11]; 8 mg/kg à 128 mg/kg i.p.): s'oppose modérément | signes de stimulation cholinergique périphérique dus à l'oxotrémorine ([11]; dose not stated): laisse pratiquement inchangés | tremblements induits par l'oxotrémorine ([11]; dose not stated): ne modifie pas | Activité sur le SNC [4]: stimulant | conclusion of the neuropsychopharmacological study: main type of CNS effect [4]: composante excitante | stéréotypies amphétaminiques [12]: ne modifie pratiquement pas | Action sur la durée du sommeil induit par le pentobarbital (50 mg/kg i.p.) effet [5, 23]: (a) | effets convulsivants de l'électrochoc [13]: ne s'oppose pas | hypothermie induite par la réserpine [14]: antagonise | ptôsis réserpinique [14]: sans modifier | stéréotypies induites par l'apomorphine [15]: laisse inchangées | nombre de passages punis [16]: n'entraîne pas d'augmentation | DL-O [6]: supérieure à 256 mg/kg | déficit moteur (traction) [17]: ne provoque pas d'incapacité motrice majeure | Observations (comportement global et réactivités) ([18]; 64 mg/kg i.p.): excitation | Observations (comportement global et réactivités) ([18]; 128 mg/kg i.p.): excitation - hypothermie (-1,5°C) pendant 0,5 h | hypothermie ([18]; 128 mg/kg i.p.): -1,5 °C | Observations (comportement global et réactivités) ([18]; 256 mg/kg i.p.): dyspnée, excitation, démarche titu-bante | mortalité ([18]; 256 mg/kg i.p.): pas de mortalité | agressivité intergroupes (nombre de combats) [7]: ne modifie pas nettement | Observations (comportement global et réactivités) [19]: mydriase pendant 3 h | hypothermie induite par l'apomorphine ([20]; 128 mg/kg i.p.): ne s'oppose pas | own effect on temperature ([20]; 128 mg/kg i.p.): hypothermisant | comportement de verticalisation et stéréotypies (apomorphine) ([20]; dose not stated): ne modifie pas | durée d'immobilité de la souris placée en immersion forcée [21]: diminue nettement | solubilité dans l'éther et l'acétate d'éthyle [8]: insoluble | solubilité dans le méthanol, l'éthanol et l'acétoné [8]: soluble | solubility [8]: < 1000 µg/mL | délai d'apparition des convulsions et de la mort consécutives à une anoxie asphyxique [22]: ne modifie pas
